From ChEMBL document CHEMBL5728698, “Pyrrolo[1,2-b]pyridazine derivatives” (2021) come the findings set out here.

This assay concerns the target T1, Interleukin-1 receptor-associated kinase 4 (Homo sapiens, UniProt Q9NWZ3).
T1 sequence (Q9NWZ3 whole entry): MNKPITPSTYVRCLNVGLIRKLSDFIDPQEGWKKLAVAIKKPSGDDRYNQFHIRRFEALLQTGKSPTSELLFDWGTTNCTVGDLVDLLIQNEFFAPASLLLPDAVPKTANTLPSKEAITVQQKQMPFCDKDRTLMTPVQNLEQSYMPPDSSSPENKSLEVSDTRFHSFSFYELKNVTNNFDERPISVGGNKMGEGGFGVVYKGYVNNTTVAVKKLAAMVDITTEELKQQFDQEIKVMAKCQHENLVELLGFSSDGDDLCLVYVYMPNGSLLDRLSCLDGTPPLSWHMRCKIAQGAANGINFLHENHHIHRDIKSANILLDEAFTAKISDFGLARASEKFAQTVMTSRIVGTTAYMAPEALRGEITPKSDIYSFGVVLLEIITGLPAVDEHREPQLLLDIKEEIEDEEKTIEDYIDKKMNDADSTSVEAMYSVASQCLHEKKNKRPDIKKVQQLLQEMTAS
Nature of the assay: IRAK4 Biochemical Assay: IRAK4 enzyme (Carna Biosciences, Chuo-ku, Kobe, Japan) activity was measured by detecting phosphorylated peptide substrate formation using an antibody against the phosphorylated peptide substrate. This is a time-resolved fluorescence resonance energy transfer (TR-FRET) immunoassay, based on the STK1 KinEASE Assay (Cisbio, Bedford, Mass.). The assay was designed as a simple two-step, endpoint assay (a 5 μl enzyme reaction followed by 5 μl stop and detect Solution) performed in ProxiPlate-384 Plus plates (Perkin Elmer, Waltham, Mass.). Staurosporine, a non-selective kinase inhibitor was used as a positive control. Compounds diluted in DMSO were spotted into 384 well plates using a Labcyte® Echo 550 Liquid Handling System prior to addition of IRAK4 enzyme and peptide substrate. Reaction solutions were delivered using a Multi-Flo (Bio-Tek Instruments). The enzyme and peptide solution was incubated with compound for 15 minutes at room temp before the reaction was initiated by the addition of ATP. The standard 5 μl reaction mixture contained 500 μM ATP, 2 μM peptide (STK1 Peptide), 0.75 nM of IRAK4 in reaction buffer (50 mM HEPES, pH 7.0, 0.02% NaN3, 0.01% BSA, 0.1 mM Orthovanadate, 5 mM MgCl2, 0.025% NP-40, 1 mM DTT). […]. For orientation: In TR-FRET formats the signal depends on donor and acceptor labels being close together.

As for `COC(=O)NC[C@H]1C[C@H](Nc2cc(-c3ccc4cc(C#N)cnn34)ncc2-c2cn([C@H]3CC[C@H](NC(=O)N4CCOCC4)CC3)nn2)C1`, the IC50 (as a rule, the concentration that inhibits the measured activity by half) was less than 1 nM.
